Reference: article PMC5779043 (Journal of the American Heart Association: Cardiovascular …, 2017)

Key:
[1] = tested on: intraluminal occlusion of the middle cerebral artery (MCA); assay: Grip test after MCA occlusion; type: in vivo, Sprague-Dawley rats; details: 7 and 14 days after ischemia, 12 nmol/kg i.v. before MCA occlusion, n=8/group
[2] = tested on: intracerebral hemorrhage and traumatic brain injury; details: intravenous administration; cited from earlier work

Substance	grip test vs control [1]	cerebral blood flow [2]	functional outcome [2]	inflammation and brain injury [2]
human BNP [hBNP]	no differences were observed			
nesiritide		improved the cerebral blood flow	better functional outcome	reduced the inflammation and brain injury
